From publication PMC10709440, “High-throughput ligand profile characterization in novel cell lines expressing seven heterologous insect olfactory receptors for the detection of volatile plant biomarkers” (Scientific Reports, 2023)
Read-outs that look alike come from different tables or passages of the source.

Columns and labels:
[1] = target: T1, Drosophila OR47a (Drosophila melanogaster, UniProt P81921); assay: Calcium ion fluorescence (GCaMP6) assay, OR47a stable HEK293 cell line; format: cell-based; settings: for OR47a response (VUAA1-normalized) at 1 μM / OR47a response (VUAA1-normalized) at 10 μM / OR47a response (VUAA1-normalized) at 100 μM / Average response: OR47a cell line; for OR47a response (VUAA1-normalized) at 1 μM: VOC concentration 1 μM; for OR47a response (VUAA1-normalized) at 10 μM: VOC concentration 10 μM; for OR47a response (VUAA1-normalized) at 100 μM: VOC concentration 100 μM; for Average response: mean of biological replicates; for OR47a Average response (VUAA1-normalized): 50 μM VUAA1 = 1
T1 construct: expressed in transfected cells
T1 sequence (P81921 1-385): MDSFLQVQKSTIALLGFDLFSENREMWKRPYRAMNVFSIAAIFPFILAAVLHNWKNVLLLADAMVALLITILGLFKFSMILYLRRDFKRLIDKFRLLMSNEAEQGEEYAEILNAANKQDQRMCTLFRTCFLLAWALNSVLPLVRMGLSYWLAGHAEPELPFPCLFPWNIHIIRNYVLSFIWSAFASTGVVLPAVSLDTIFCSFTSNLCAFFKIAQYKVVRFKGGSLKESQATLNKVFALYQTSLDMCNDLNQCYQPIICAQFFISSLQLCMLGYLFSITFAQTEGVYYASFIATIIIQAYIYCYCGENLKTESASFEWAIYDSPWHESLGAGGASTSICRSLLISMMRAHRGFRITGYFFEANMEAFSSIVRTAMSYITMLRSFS
T1 sequence (Q9VNB5 1-486 partner): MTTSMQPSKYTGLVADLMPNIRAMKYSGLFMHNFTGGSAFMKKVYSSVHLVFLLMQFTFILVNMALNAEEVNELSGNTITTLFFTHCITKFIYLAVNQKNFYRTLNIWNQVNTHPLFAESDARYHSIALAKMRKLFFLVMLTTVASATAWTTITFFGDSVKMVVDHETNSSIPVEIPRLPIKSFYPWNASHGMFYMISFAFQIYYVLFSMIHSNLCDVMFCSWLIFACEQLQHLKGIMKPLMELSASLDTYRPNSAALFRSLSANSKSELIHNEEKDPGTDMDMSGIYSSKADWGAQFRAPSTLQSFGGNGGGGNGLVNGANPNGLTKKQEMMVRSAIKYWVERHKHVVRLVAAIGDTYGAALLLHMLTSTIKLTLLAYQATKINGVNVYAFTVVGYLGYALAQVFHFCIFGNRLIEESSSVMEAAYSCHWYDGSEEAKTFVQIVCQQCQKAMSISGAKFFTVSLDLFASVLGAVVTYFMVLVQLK
In short: (§1)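 HEK293 lines stably expressing each Drosophila OR with GCaMP6, doxycycline-induced (1 μg/mL) 48 or 72 h. Fluorescence recorded 5 s baseline then 30 s after VOC injection at pH 7.3; ΔF=(FMAX−F0)/F0, normalized to 50 µM VUAA1 response per line, triplicate wells averaged; concentration series 0.01–100 μM.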

[2] = target: T2, Drosophila OR98a (Drosophila melanogaster, UniProt Q9VAZ3); assay: Calcium ion fluorescence (GCaMP6) assay, OR98a stable HEK293 cell line; format: cell-based; settings: for OR98a response (VUAA1-normalized) at 1 μM / OR98a response (VUAA1-normalized) at 10 μM / OR98a response (VUAA1-normalized) at 100 μM / Average response: OR98a cell line; for OR98a response (VUAA1-normalized) at 1 μM: VOC concentration 1 μM; for OR98a response (VUAA1-normalized) at 10 μM: VOC concentration 10 μM; for OR98a response (VUAA1-normalized) at 100 μM: VOC concentration 100 μM; for OR98a Average response (VUAA1-normalized): 50 μM VUAA1 = 1; for Average response: average of biological replicates, fraction of VUAA1 response
T2 construct: expressed in transfected cells
T2 sequence (Q9VAZ3 1-397): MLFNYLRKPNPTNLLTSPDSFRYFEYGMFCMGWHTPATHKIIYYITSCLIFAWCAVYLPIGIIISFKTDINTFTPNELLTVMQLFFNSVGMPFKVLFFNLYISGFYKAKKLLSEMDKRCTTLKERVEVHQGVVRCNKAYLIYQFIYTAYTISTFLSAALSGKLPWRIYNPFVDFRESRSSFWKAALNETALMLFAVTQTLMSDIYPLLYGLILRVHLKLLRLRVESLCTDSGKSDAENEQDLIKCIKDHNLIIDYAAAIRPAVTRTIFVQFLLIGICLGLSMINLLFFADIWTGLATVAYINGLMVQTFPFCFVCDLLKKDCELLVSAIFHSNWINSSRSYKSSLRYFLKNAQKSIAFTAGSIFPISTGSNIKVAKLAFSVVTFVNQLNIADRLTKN
T2 sequence (Q9VNB5 1-486 partner): T1 sequence (Q9VNB5 1-486 partner)
In short: as §1

[3] = ligand concentration 1 (unit not given), 0.05 threshold, values below shown as 0
[4] = ligand concentration 10 (unit not given), 0.05 threshold, values below shown as 0
[5] = ligand concentration 100 (unit not given), 0.05 threshold, values below shown as 0
[6] = HEK293, read-out: Average response
[7] = HEK293, read-out: OR47a Average response (VUAA1-normalized)
[8] = HEK293, read-out: OR47a response (VUAA1-normalized response)
[9] = concentration 1, normalized fluorescence change, values below 0.05 threshold given as 0
[10] = concentration 10, normalized fluorescence change, values below 0.05 threshold given as 0
[11] = concentration 100, normalized fluorescence change, values below 0.05 threshold given as 0
[12] = HEK293, read-out: OR98a response (VUAA1-normalized response)
[13] = ligand concentration 1 (unit not given), threshold 0.05, below shown as 0
[14] = ligand concentration 10 (unit not given), threshold 0.05, below shown as 0
[15] = ligand concentration 100 (unit not given), threshold 0.05, below shown as 0
[16] = HEK293, read-out: OR98a Average response (VUAA1-normalized)

| Compound | Average response ([1]; odorant cc. 1 µM) | Average response ([1]; odorant cc. 10 µM) | Average response ([1]; odorant cc. 100 µM) | DF norm AVERAGE OR47a [1, 3] | DF norm AVERAGE OR47a [1, 4] | DF norm AVERAGE OR47a [1, 5] | activation at 1 µM [2, 6] [%] | activation at 10 µM [2, 6] [%] | activation at 100 µM [2, 6] [%] | DF norm AVERAGE OR98a [2, 3] | DF norm AVERAGE OR98a [2, 4] | activation at 1 µM [1, 7] [%] | activation at 10 µM [1, 7] [%] | activation at 100 µM [1, 7] [%] | activation at 1 µM [1, 8] [%] | activation at 10 µM [1, 8] [%] | activation at 100 µM [1, 8] [%] | activation at 1 µM [2, 12] [%] | activation at 10 µM [2, 12] [%] | activation at 100 µM [2, 12] [%] | further results |
| --- | --- | --- | --- | --- | --- | --- | --- | --- | --- | --- | --- | --- | --- | --- | --- | --- | --- | --- | --- | --- | --- |
| CCCCCCCCCCC [undecane] | 0.00 | 0.00 | 0.00 | 0 | 0 | 0 | 2.26 | 0 | 8 | 0 | 0 |  |  |  |  |  |  |  |  |  | OR47a response (VUAA1-normalized) at 1 μM [1]: 0.00; OR47a response (VUAA1-normalized) at 10 μM [1]: 0.00; OR47a response (VUAA1-normalized) at 100 μM [1]: 0.00; OR98a response (VUAA1-normalized) at 1 μM [2]: 0.00; OR98a response (VUAA1-normalized) at 10 μM [2]: 0.00; OR98a response (VUAA1-normalized) at 100 μM [2]: 0.08; DF norm AVERAGE OR98a [2, 5]: 0.08228 |
| CC/C=C\CCO [Z3-hexenol] | 0.0266 | 0.0571 | 0.10 | 0 | 0.0571 | 0.1005 |  |  |  | 0 | 0.167 |  |  |  |  |  |  |  |  |  | OR47a Average response (VUAA1-normalized) ([1]; 1 μM VOC): 0.03; OR47a Average response (VUAA1-normalized) ([1]; 10 μM VOC): 0.06; OR47a Average response (VUAA1-normalized) ([1]; 100 μM VOC): 0.10; OR98a Average response (VUAA1-normalized) ([2]; 1 μM VOC): 0.00; OR98a Average response (VUAA1-normalized) ([2]; 10 μM VOC): 0.17; OR98a Average response (VUAA1-normalized) ([2]; 100 μM VOC): 0.11; Average response ([2]; cc. 1 µM): 0.00; Average response ([2]; cc. 10 µM): 0.17; Average response ([2]; cc. 100 µM): 0.11; DF norm AVERAGE OR98a [2, 5]: 0.1147 |
| CCCCC(C)=O [2-hexanone] | 0.0368 | 0.00 | 0.16 |  |  |  | 3 | 4.36 | 3.5 |  |  | 4 | 0 | 16 | 0 | 0 | 16 | 0 | 0 | 0 | DF norm AVERAGE OR47a [1, 9]: 0; DF norm AVERAGE OR47a [1, 10]: 0; DF norm AVERAGE OR47a [1, 11]: 0.1643; DF norm AVERAGE OR98a [2, 9]: 0; DF norm AVERAGE OR98a [2, 10]: 0; DF norm AVERAGE OR98a [2, 11]: 0 |
| CCCC(O)CC (stereo not drawn) [3-hexanol] | 0.00 | 0.00 | 0.11 |  |  |  | 0 | 19 | 1.15 |  |  | 0 | 0 | 11 | 0 | 0 | 11 | 0 | 19 | 0 | DF norm AVERAGE OR47a [1, 9]: 0; DF norm AVERAGE OR47a [1, 10]: 0; DF norm AVERAGE OR47a [1, 11]: 0.1087; DF norm AVERAGE OR98a [2, 9]: 0; DF norm AVERAGE OR98a [2, 10]: 0.194; DF norm AVERAGE OR98a [2, 11]: 0 |
| CC(=O)c1ccccc1 [acetophenone] | 0.0171 | 0.00 | 0.0243 |  |  |  | 4 | 0 | 0 |  |  |  |  |  | 0 | 0 | 0 | 0 | 0 | 0 | DF norm AVERAGE OR47a [1, 13]: 0; DF norm AVERAGE OR47a [1, 14]: 0; DF norm AVERAGE OR47a [1, 15]: 0; DF norm AVERAGE OR98a [2, 13]: 0; DF norm AVERAGE OR98a [2, 14]: 0; DF norm AVERAGE OR98a [2, 15]: 0 |
| CCCCCC(C)=O [2-heptanone] | 0.03 | 0.19 | 0.46 |  |  |  | 7 | 1.68 | 11 |  |  | 3 | 19 | 46 | 0 | 19 | 46 | 7 | 0 | 11 | DF norm AVERAGE OR47a [1, 9]: 0; DF norm AVERAGE OR47a [1, 10]: 0.1895; DF norm AVERAGE OR47a [1, 11]: 0.4589; activation at 1 µM [2, 16]: 7%; activation at 10 µM [2, 16]: 2%; activation at 100 µM [2, 16]: 11%; DF norm AVERAGE OR98a [2, 9]: 0.06738; DF norm AVERAGE OR98a [2, 10]: 0; DF norm AVERAGE OR98a [2, 11]: 0.1149 |
| CCCCCCCCCCCCCC [tetradecane] | 0.02 | 0.03 | 0.00 | 0 | 0 | 0 | 0 | 12 | 10 | 0 | 0.1151 |  |  |  |  |  |  |  |  |  | OR47a response (VUAA1-normalized) at 1 μM [1]: 0.00; OR47a response (VUAA1-normalized) at 10 μM [1]: 0.00; OR47a response (VUAA1-normalized) at 100 μM [1]: 0.00; activation at 1 µM [2, 16]: 0%; activation at 10 µM [2, 16]: 12%; activation at 100 µM [2, 16]: 10%; OR98a response (VUAA1-normalized) at 1 μM [2]: 0.00; OR98a response (VUAA1-normalized) at 10 μM [2]: 0.12; OR98a response (VUAA1-normalized) at 100 μM [2]: 0.10; DF norm AVERAGE OR98a [2, 5]: 0.09569 |
| CCCCCC(=O)OCC [ethyl hexanoate] | 0.0662 | 0.26 | 0.67 |  |  |  | 5 | 12 | 3.29 |  |  | 7 | 26 | 67 | 6.62 | 26 | 67 | 0 | 12 | 0 | DF norm AVERAGE OR47a [1, 13]: 0.06617; DF norm AVERAGE OR47a [1, 14]: 0.2596; DF norm AVERAGE OR47a [1, 15]: 0.6687; DF norm AVERAGE OR98a [2, 13]: 0; DF norm AVERAGE OR98a [2, 14]: 0.1164; DF norm AVERAGE OR98a [2, 15]: 0 |
